pEC50: −log10 of the molar value.
Key:
[1] = tested on: normal human hepatocytes (HP-F); assay: MTS cell viability assay, normal human hepatocytes; assay type: cell-based; conditions: Hepatocyte, 24 h
Procedure: Cell viability was determined by using the MTS assay. In brief, HepG2 cells (5×10^3 cells/100 µL/well), MDA-MB-231 (5×10^3 cells/100 µL/well), THP-1 (25×10^3/100 µL/well), normal human and rat hepatocytes (1×10^4 cells/100 µL/well) were plated in triplicate, in a 96 well sterile flat bottom tissue culture plates. […] Thereby, cells were exposed to various concentrations (0.1, 1, 10, 25, 50, 75, 100 µM) of each treatment. Controls consist of cells with media containing DMSO (<0.5%), test blank wells contained the test compound in media with no cells and blank wells contained media with no cells. After additional 3, 6, 12, 18 or 24 h, 20 µL of the MTS reagent in combination with the electron coupling agent, phenazine methosulfate were added to the wells and cells were incubated in a humidified incubator for 3 h. Absorbance at 490 nm (OD490) was measured by using a Flurostar Optima microplate reader (BMG Labtech, Cary, NC, USA) to obtain the number of viable cells relative to the control population. Percentage of viability of the test compound treated cells are expressed as percentage compared to control (<0.5% DMSO). […] The selective index (SI) of the fatty acid esters of phloridzin is defined as the ratio of cytotoxicity (EC50 values) on normal HP-F cells to solid cancer HepG2, MDA-MB-231 cells (SI = EC50 on HP-F cells/EC50 on solid cancer cells). Samples with SI values greater than three were considered to have high selectivity towards cancer cells.

[2] = glycosylation at 2-OH; cited from earlier work
[3] = tested on: BALB-MC.E12 mouse mammary tumor cells; design: method as in PMID 17827407; conditions: antitumor activity study of apple polyphenols; cited from earlier work
HepG2 cells [4] = assay: Morphologic observation under inverted phase contrast microscope; assay type: cell-based, human; conditions: HepG2, 100 µM, 24 h
Procedure: After 24 h of treatment, the morphology of HepG2 cells was observed under an inverted phase contrast microscope (Nikon Eclipse E 100, Nikon, Mississauga, ON, Canada) and were captured at 400X magnification using Infinity digital microscopy camera (Lumenera corporation, Ottawa, ON, Canada).

B16 mouse melanoma cells = tested on: B16 mouse melanoma cells; design: method as in PMID 17827407; conditions: antitumor activity study of apple polyphenols; cited from earlier work
HepG2 cells [5] = assay: DNA fragmentation (apoptotic DNA ladder); assay type: cell-based, human; conditions: HepG2, 100 µM, 24 h, agarose gel
Procedure: HepG2 (1×10^5) cells were seeded in 24-well culture plates and were allowed to adhere overnight. […] The plates were re-incubated for another 24 h. DNA fragmentation was detected using ApoTarget Quick Apoptotic DNA Ladder Detection Kit (Invitrogen, Burlington, ON, Canada) according to the manufacturer’s protocol. The principle involves detecting the internucleosomal DNA fragments formed during apoptosis. Briefly, floating dead cells and trypsinized adherent cells were collected and centrifuged at 1,000 rpm for 10 min. After washing with diluted phosphate buffered saline, the cells were lysed with 35 µL TE lysis buffer (a kit component). To the lysate, 5 µL of Enzyme A (a kit component) was added and incubated at 37°C for 10 min. Afterwards, 5 µL of Enzyme B (a kit component) was added, gently mixed and incubated at 50°C for 30 min. The DNA was precipitated with the ammonium acetate and absolute ethanol at −20°C. After centrifugation (10 min at 12,000 rpm) and air drying, the DNA pellet was dissolved in 30 µL of DNA suspension buffer. For detecting the DNA ladder, the extracted DNA samples were run on a 1.2% agarose gel containing 0.5 µg/mL gel red in Tris-Borate-EDTA (TBE) buffer. After electrophoresis, the gel image was captured using Gel Doc 100 system (Bio-Rad, Mississauga, ON, Canada).

DNA topo IIα = tested on: DNA topo IIα; design: method as in PMID 7769390; conditions: cited from earlier work
HepG2 cells [6] = assay: LDH release cytotoxicity assay; assay type: cell-based, human; conditions: HepG2, 100 µM, 6 h, relative to maximum release by 1% Triton X-100
Procedure: Lactate dehydrogenase (LDH) is a stable cytosolic enzyme that is released upon membrane damage in apoptotic/necrotic cells. LDH activity was measured using CytoTox 96 Non-Radioactive Cytotoxicity Assay (Promega, Madison, WI, USA), in which LDH released in culture supernatants is measured with a coupled enzymatic assay, resulting in conversion of a tetrazolium salt into a red formazan product. […] After centrifugation, the supernatant was removed to an assay plate, and the LDH released from the cells into culture medium was measured. The maximal release was obtained after treating control cells with 1% Triton X-100 for 30 min at room temperature. The apoptotic/necrotic percentage was expressed using the formula: (sample value/maximal release)×100%.

HepG2 cells [7] = assay: Mitochondrial membrane potential (JC-1); assay type: cell-based, human; conditions: HepG2, 100 µM, 24 h
Procedure: HepG2 cells were seeded in a black walled clear bottom 96-well sterile flat bottom tissue culture plates (BD Biosciences, USA) at a density of 5×10^4 cells/well (100 µL) and incubated in a CO2 incubator for 24 h at 37°C. […] The staining solution JC-1 was prepared with PBS and 5 µM was added to each well. The cells were further incubated in a CO2 incubator at 37°C for 1 h. After washing the plate with PBS twice, the fluorescence was measured using a Fluostar Optima microplate reader (BMG Labtech) at 535 nm for JC-1 monomers and at 590 nm for JC-1 aggregates.

[8] = tested on: LNCaP prostate cancer cells; design: method as in PMID 20714300; conditions: 100 µM; cited from earlier work

Structure (SMILES)	pEC50 [1]	decrease of antioxidant activities in comparison to phloretin [2]	proliferation of BALB-MC.E12 mouse mammary tumor cells [3]	apoptotic morphological changes (HepG2 cells [4])	proliferation of transplanted B16 mouse melanoma cells (B16 mouse melanoma cells)	internucleosomal DNA fragmentation (HepG2 cells [5])	DNA topo IIα unknotting activity (DNA topo IIα)	LDH release (HepG2 cells [6])	mitochondrial membrane potential (HepG2 cells [7])	TRAIL-induced apoptosis and cytotoxicity [8]
O=C(CCc1ccc(O)cc1)c1c(O)cc(O)cc1O[C@@H]1O[C@H](CO)[C@@H](O)[C@H](O)[C@H]1O [Phloridzin, phloretin 2′-O-glucoside]	< 4.00	18 times	did not affect the proliferation	no effect	did not affect the proliferation	only intact genomic DNA	–	–	–	–
O=C(CCc1ccc(O)cc1)c1c(O)cc(O)cc1O [Phloretin]	–	–	–	–	–	only intact genomic DNA	inhibit DNA topo IIα unknotting activity	7.9±0.5%	significant (P<0.05) reduction	augmented

Reference: article PMC4167698, “Fatty Acid Esters of Phloridzin Induce Apoptosis of Human Liver Cancer Cells through Altered Gene Expression” (PLoS ONE, 2014)
